The source of these data is ChEMBL document CHEMBL2169741, “Analysis of the discriminative inhibition of mammalian digestive lipases by 3-phenyl substituted 1,3,4-oxadiazol-2(3H)-ones” (Eur J Med Chem, 2012).

Activity calls are given as the source filed them. The calls are words filed in the database; no cut-off is given here. Bounds are passed on as bounds.

Assay [1] deals with T1, Gastric triacylglycerol lipase (Canis lupus familiaris) (UniProt P80035).
T1 sequence (whole entry): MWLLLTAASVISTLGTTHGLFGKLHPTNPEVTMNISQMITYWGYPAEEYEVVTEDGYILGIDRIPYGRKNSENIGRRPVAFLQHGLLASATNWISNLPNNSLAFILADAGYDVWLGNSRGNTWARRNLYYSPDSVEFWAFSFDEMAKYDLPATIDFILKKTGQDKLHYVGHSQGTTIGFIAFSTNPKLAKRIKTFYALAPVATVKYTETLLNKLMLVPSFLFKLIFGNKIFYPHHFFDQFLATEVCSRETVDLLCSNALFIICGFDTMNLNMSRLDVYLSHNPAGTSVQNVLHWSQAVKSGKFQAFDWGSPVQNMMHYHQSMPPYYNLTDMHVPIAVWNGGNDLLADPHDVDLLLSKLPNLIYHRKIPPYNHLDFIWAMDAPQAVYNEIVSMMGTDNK
The assay is described as follows: Inhibition of recombinant DGL expressed in transgenic maize assessed as hydrolysis of trybutyrin emulsion at 10 to 40 molar excess after 30 mins in presence of NaTDC.

Assay [2] addresses T2, Pancreatic lipase-related protein 2 (Homo sapiens) (UniProt P54317).
T2 sequence (whole entry): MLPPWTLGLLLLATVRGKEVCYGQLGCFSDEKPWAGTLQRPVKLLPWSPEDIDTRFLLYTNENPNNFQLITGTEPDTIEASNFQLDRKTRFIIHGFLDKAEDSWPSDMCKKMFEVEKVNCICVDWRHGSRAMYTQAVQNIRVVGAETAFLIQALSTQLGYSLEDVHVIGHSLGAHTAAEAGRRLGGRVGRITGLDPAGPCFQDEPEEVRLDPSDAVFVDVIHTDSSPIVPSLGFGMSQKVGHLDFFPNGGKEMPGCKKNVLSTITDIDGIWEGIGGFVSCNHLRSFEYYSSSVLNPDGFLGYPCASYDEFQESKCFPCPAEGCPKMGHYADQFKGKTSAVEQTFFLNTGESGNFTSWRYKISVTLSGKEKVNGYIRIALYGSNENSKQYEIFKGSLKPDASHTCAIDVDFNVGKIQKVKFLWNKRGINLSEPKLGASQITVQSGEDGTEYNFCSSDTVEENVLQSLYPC
The assay is described as follows: Inhibition of recombinant HPLRP2 expressed in Pichia pastoris assessed as half inactivation time at 5 molar excess in presence of NaTDC.

Assay [3] is filed under the species Sus scrofa. Description: Inhibition of porcine Pancrelipase at 400 molar excess after 30 mins.
Assay [4] concerns the target T3, Pancreatic triacylglycerol lipase (Homo sapiens) (UniProt P16233).
T3 sequence (whole entry): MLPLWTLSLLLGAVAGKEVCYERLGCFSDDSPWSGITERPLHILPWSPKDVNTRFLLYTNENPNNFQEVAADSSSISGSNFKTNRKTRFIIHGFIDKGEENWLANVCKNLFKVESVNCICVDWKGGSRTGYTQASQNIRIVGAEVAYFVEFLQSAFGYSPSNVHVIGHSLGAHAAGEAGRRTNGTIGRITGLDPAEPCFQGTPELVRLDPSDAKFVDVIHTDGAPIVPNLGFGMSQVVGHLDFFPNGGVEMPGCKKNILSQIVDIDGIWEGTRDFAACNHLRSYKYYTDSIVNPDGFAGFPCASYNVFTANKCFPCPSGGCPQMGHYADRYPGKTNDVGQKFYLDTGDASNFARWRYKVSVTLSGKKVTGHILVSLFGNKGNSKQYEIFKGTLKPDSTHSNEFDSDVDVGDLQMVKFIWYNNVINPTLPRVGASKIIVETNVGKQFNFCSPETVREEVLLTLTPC
The assay is described as follows: Inhibition of recombinant HPL expressed in Pichia pastoris at 400 molar excess after 30 mins in presence of NaTDC.

Assay [5] concerns the target T2, Pancreatic lipase-related protein 2 (Homo sapiens). The assay is described as follows: Inhibition of recombinant HPLRP2 expressed in Pichia pastoris after 30 mins in presence of NaTDC.
Assay [6] shares this target. Description: Inhibition of recombinant HPLRP2 expressed in Pichia pastoris at 20 molar excess after 30 mins in presence of NaTDC.
For assay [7], the target named is T1, Gastric triacylglycerol lipase (Canis lupus familiaris). The assay is described as follows: Inhibition of recombinant DGL expressed in transgenic maize after 30 mins in presence of NaTDC.
In assay [8] the target is T3, Pancreatic triacylglycerol lipase (Homo sapiens). Description: Inhibition of recombinant HPL expressed in Pichia pastoris after 30 mins in presence of NaTDC.
For assay [9], the target named is T1, Gastric triacylglycerol lipase (Canis lupus familiaris). Description: Inhibition of recombinant DGL expressed in transgenic maize assessed as hydrolysis of trybutyrin emulsion at 10 to 40 molar excess after 30 mins in absence of NaTDC.
Assay [10] concerns the target T4, Pancreatic lipase-related protein 2 (Cavia porcellus) (UniProt P81139).
T4 sequence (whole entry): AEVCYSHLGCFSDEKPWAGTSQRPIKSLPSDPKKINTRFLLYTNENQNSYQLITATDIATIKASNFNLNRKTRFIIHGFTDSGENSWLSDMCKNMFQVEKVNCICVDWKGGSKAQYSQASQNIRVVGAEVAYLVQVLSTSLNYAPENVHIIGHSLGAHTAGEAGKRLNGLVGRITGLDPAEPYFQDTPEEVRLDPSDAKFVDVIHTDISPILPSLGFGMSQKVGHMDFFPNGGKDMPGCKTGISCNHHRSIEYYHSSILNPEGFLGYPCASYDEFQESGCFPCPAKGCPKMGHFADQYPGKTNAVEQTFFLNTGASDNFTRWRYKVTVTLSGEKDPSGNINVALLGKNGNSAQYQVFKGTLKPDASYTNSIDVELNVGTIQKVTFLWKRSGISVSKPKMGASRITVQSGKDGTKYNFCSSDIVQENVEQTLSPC
Description: Inhibition of recombinant GPLRP2 expressed in Aspergillus oryzae assessed as residual activity at 40 molar excess after 30 mins by mass spectrophotometric analysis in presence of NaTDC.

Assay [11] has as its target T1, Gastric triacylglycerol lipase (Canis lupus familiaris). The assay is described as follows: Inhibition of recombinant DGL expressed in transgenic maize assessed as residual activity at 40 molar excess after 30 mins by mass spectrophotometric analysis in presence of NaTDC.

A word on the inhibition: it is how much of the control response was suppressed. In the case of `CCCCCCCCCCC[C@@H](C[C@@H]1OC(=O)[C@H]1CCCCCC)OC(=O)[C@H](CC(C)C)NC=O`, the inhibition in [1] worked out at 60%; in assay [3], 93.1%; in [4], 85%; in assay [6], 86.3%. Moreover, the T1/2 in assay [2] was 0.55 min. Further, in [5], the XI50 was 0.77 molar excess.

`COc1nn(-c2ccccc2)c(=O)o1`: the XI50 in [7] is greater than 40 molar excess; in assay [5], 2.27 molar excess. In addition, the T1/2 in assay [2] amounted to 14.6 min. For the same compound, the inhibition in [3] was 34.1%; in assay [6], 92.7%. Besides, the inhibition result in assay [4] is “inactive”. Further, the XI50 entry in [8] is “inactive”.

`COc1nn(-c2cccc(Oc3ccccc3)c2)c(=O)o1`: the inhibition in assay [9] is 65%; in [3], 89.7%; in assay [4], 42.7%; in assay [6], 81.2%. For the same compound, the inhibition entry in assay [1], in assay [10] and in assay [11] was “Active” throughout. In addition, the XI50 is 8.33 molar excess in [7], greater than 400 molar excess in [8] and 0.62 molar excess in assay [5]. In addition, the T1/2 in [2] was 0.78 min.

As to `COc1nn(-c2ccc(Oc3ccccc3)cc2)c(=O)o1`, the inhibition in [9] amounted to 65%; in assay [3], 90.6%; in assay [4], 20%; in assay [6] it was 88.8%. In addition, the inhibition entry in [1] is “Active”. The XI50 in [7] is 7.12 molar excess; in [8], greater than 400 molar excess; in assay [5], 1.04 molar excess. Also, in assay [2], the T1/2 was 2.06 min.
